How the values were obtained:
[1] = Cell Titer-fluor cell activity assay in HCV-1b replicon cells (CC50); format: cell-based
How it was run: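 CC50 derived by nonlinear fitting of inhibition % from Cell Titer-fluor signal (405/515 nm, 30 min). Cells: genotype 1b Con1 replicon carrying E1202G, T1280I, K1846T, seeded 8000/well with compound for 3 days, 37 °C, 0.5% DMSO; 6 points, 5-fold dilution, top 100, 10 or 1 nM, duplicates.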

[2] = tested on: HCV genotype 1a (HCV-1a) replicon cells; assay: HCV genotype 1a replicon luciferase assay (EC50); format: cell-based, hepatitis C virus genotype 1a (H77 clone); settings: Hepatitis C virus, 72 h, 3 days, luciferase (Bright-Glo)
How it was run: (§1)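 EC50 values come from nonlinear fitting of inhibition derived from replicon luciferase signal. Cells (8000/well) were treated 3 days with duplicate 6-point, 5-fold dilutions, starting at 100, 10 or 1 nM, with 0.5% DMSO.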

[3] = tested on: HCV genotype 1b (HCV-1b) replicon cells; assay: HCV genotype 1b replicon luciferase assay (EC50); format: cell-based, hepatitis C virus genotype 1b (Con1 clone); settings: Hepatitis C virus, 72 h, 3 days, luciferase (Bright-Glo)
How it was run: as §1

SMILES	CC50 at 3 days [1] [nM]	EC50 [2] [nM]	EC50 [3] [nM]
COC(=O)N[C@H](C(=O)N1CCC[C@H]1c1ccc(-c2ccc(-c3ccc(-c4cnc([C@@H]5CCCN5C(=O)[C@@H](NC(=O)OC)C5CCCCC5)[nH]4)cc3)cc2)[nH]1)C(C)C [AG_101]	> 1	1 to 10	0.001 to 0.1
COC(=O)N[C@H](C(=O)N1CCC[C@H]1c1ncc(-c2ccc(-c3ccc(-c4cnc([C@@H]5C6CCC(C6)[C@H]5C(=O)NCc5ccc(OC)nc5)[nH]4)cc3)cc2)[nH]1)C(C)C (stereo partly drawn) [AA_200_B]	> 1	1 to 10	0.001 to 0.1
COC(=O)N[C@H](C(=O)N1CCC[C@H]1c1ncc(-c2ccc(-c3ccc(-c4cnc(C5C6CCC(C6)[C@H]5C(=O)NCc5cccnc5)[nH]4)cc3)cc2)[nH]1)[C@@H](C)OC (stereo partly drawn) [AA_179_A]	> 1	1 to 10	0.001 to 0.1
COC(=O)NC(C(=O)N1CCC[C@H]1c1ncc(-c2ccc(-c3ccc(-c4cnc(C5CCCC[C@@H]5C(=O)N(NC(=O)OC)C(C)C)[nH]4)cc3)cc2)[nH]1)C1CCOCC1 (stereo partly drawn) [AA_109]	> 100	10 to 100	0.101 to 1
COC(=O)N[C@H](C(=O)N1CCC[C@H]1c1ncc(-c2ccc(-c3ccc(-c4cnc([C@H]5CCCC[C@@H]5C(=O)N(NC(=O)OC)C(C)C)[nH]4)cc3)cc2)[nH]1)C(C)C [AA_091_B]	> 10	10 to 100	0.101 to 1
COC(=O)N[C@H](C(=O)N1CCC[C@H]1c1ncc(-c2ccc(-c3ccc(-c4cnc([C@@H]5[C@H]6CC[C@H](C6)[C@H]5C(=O)N[C@H](C)c5cccnc5)[nH]4)cc3)cc2)[nH]1)C(C)C [AA_204_ENDOA2_B]	> 1	1 to 10	0.001 to 0.1
COC(=O)N[C@H](C(=O)N1CCC[C@H]1c1nc2cc(-c3ccc(-c4[nH]c([C@@H]5CCCN5C(=O)[C@@H](NC(=O)OC)C(C)C)c5c4CCC5)cc3)ccc2[nH]1)C(C)C [AG_063]	> 1	10 to 100	0.001 to 0.1
COC(=O)N[C@H](C(=O)N1CCC[C@H]1c1ncc(-c2ccc(-c3ccc(-c4cnc([C@@H]5[C@H]6CC[C@H](C6)[C@H]5C(=O)N[C@H](c5cccnc5)C(C)C)[nH]4)cc3)cc2)[nH]1)C(C)C [AA_233_ENDOA2_A]	> 1	0.101 to 1	0.001 to 0.1
COC(=O)N[C@H](C(=O)N1CCC[C@H]1c1ncc(-c2ccc(-c3ccc(-c4cnc([C@@H]5C6CCC(C6)[C@H]5C(=O)NCc5cccc(N)c5)[nH]4)cc3)cc2)[nH]1)C(C)C (stereo partly drawn) [AA_199_B]	> 1	10 to 100	0.001 to 0.1
COC(=O)N[C@H](C(=O)N1CCC[C@H]1c1ncc(-c2ccc(-c3ccc(-c4cnc(C5C6CCC(C6)[C@@H]5C(=O)NCc5cncnc5)[nH]4)cc3)cc2)[nH]1)[C@@H](C)OC (stereo partly drawn) [AA_249_A]	> 1	0.101 to 1	0.001 to 0.1
COC(=O)N[C@H](C(=O)N1CCC[C@H]1c1ncc(-c2ccc(-c3ccc(-c4cnc([C@H]5C6CCC(C6)[C@@H]5C(=O)NCc5cccc(N)c5)[nH]4)cc3)cc2)[nH]1)C(C)C (stereo partly drawn) [AA_199_A]	> 1	1 to 10	0.001 to 0.1
CC[C@H](C)[C@H](NC(=O)OC)C(=O)N1CCC[C@H]1c1ncc(-c2ccc(-c3ccc(-c4ccc([C@@H]5CCCN5C(=O)[C@@H](NC(=O)OC)C(C)C)[nH]4)cc3)cc2)[nH]1 [AG_107]	> 1	1 to 10	0.001 to 0.1
COC(=O)N[C@H](C(=O)N1CCCC1c1cc(Cl)c(-c2ccc(-c3ccc(-c4cnc([C@@H]5CCCN5C(=O)[C@@H](NC(=O)OC)C(C)C)[nH]4)cc3)cc2)[nH]1)C(C)C (stereo partly drawn) [AG_087]	> 1	0.101 to 1	0.001 to 0.1
COC(=O)N[C@H](C(=O)N1CCC[C@@H]1c1ccc(-c2ccc(-c3ccc(-c4cnc([C@@H]5CCCN5C(=O)[C@@H](NC(=O)OC)[C@@H](C)OC)[nH]4)cc3)cc2)[nH]1)C(C)C [AG_061_B]	> 10	0.101 to 1	0.001 to 0.1
COC(=O)N[C@H](C(=O)N1CCC[C@H]1c1ncc(-c2ccc(-c3ccc(-c4cnc(C5C6CCC(C6)[C@@H]5C(=O)NCc5ccco5)[nH]4)cc3)cc2)[nH]1)[C@@H](C)OC (stereo partly drawn) [AA_222_A]	> 1	10 to 100	0.001 to 0.1
COC(=O)N[C@H](C(=O)N1CCC[C@H]1c1ncc(-c2ccc(-c3ccc(-c4cnc(C5C6CCC(C6)[C@@H]5C(=O)NCc5cccnc5F)[nH]4)cc3)cc2)[nH]1)[C@@H](C)OC (stereo partly drawn) [AA_252_A]	> 1	1 to 10	0.101 to 1
COC(=O)N[C@H](C(=O)N1CCC[C@H]1c1ncc(-c2ccc(-c3ccc(-c4cnc([C@@H]5C6CCC(C6)[C@H]5C(=O)NCc5cncnc5)[nH]4)cc3)cc2)[nH]1)C(C)C (stereo partly drawn) [AA_201_B]	> 1	1 to 10	0.001 to 0.1
COC(=O)N[C@H](C(=O)N1CCC[C@H]1c1ncc(-c2ccc(-c3ccc(-c4cnc([C@H]5C6CCC(C6)[C@@H]5C(=O)NCC5CNc6ccccc6C5)[nH]4)cc3)cc2)[nH]1)C(C)C (stereo partly drawn) [AA_218]	> 1	10 to 100	0.101 to 1
COC(=O)N[C@H](C(=O)N1CC2(C[C@H]1c1ncc(-c3ccc(-c4ccc(-c5cnc(C6C7CCC(C7)[C@H]6C(=O)NCc6cccnc6)[nH]5)cc4)cc3)[nH]1)OCCO2)C(C)C (stereo partly drawn) [AA_192_B]	> 1	1 to 10	0.001 to 0.1
COC(=O)N[C@H](C(=O)N1CCC[C@H]1c1[nH]c(-c2ccc(-c3ccc(-c4cnc([C@@H]5CCCN5C(=O)[C@@H](NC(=O)OC)C5CC5)[nH]4)cc3)cc2)c2c1CCC2)C(C)C [AG_086]	> 1	10 to 100	0.001 to 0.1
COC(=O)N[C@H](C(=O)N1CCC[C@H]1c1ncc(-c2ccc(-c3ccc(-c4cnc([C@H]5C6CCC(C6)C5C(=O)NCc5cccnc5)[nH]4)cc3)nc2)[nH]1)[C@@H](C)OC (stereo partly drawn) [AA_242_A]	> 1	10 to 100	0.101 to 1
COC(=O)N[C@H](C(=O)N1C[C@@H](OC)C[C@H]1c1ncc(-c2ccc(-c3ccc(-c4cnc([C@H]5C6CCC(C6)[C@@H]5C(=O)NCc5cccnc5)[nH]4)cc3)cc2)[nH]1)[C@@H](C)OC (stereo partly drawn) [AA_231_B]	> 1	1 to 10	0.001 to 0.1
COC(=O)N[C@H](C(=O)N1CCC[C@H]1c1ccc(-c2ccc(-c3ccc(-c4cnc([C@@H]5CCCCN5C(=O)[C@@H](NC(=O)OC)[C@@H](C)OC)[nH]4)cc3)cc2)[nH]1)[C@@H](C)OC [AG_120]	> 1	1 to 10	0.001 to 0.1
COC(=O)N[C@H](C(=O)N1CCC[C@H]1c1ncc(-c2ccc(-c3ccc(-c4cnc(C5C6CCC(C6)[C@H]5C(=O)N(C)c5ccccn5)[nH]4)cc3)cc2)[nH]1)[C@@H](C)OC (stereo partly drawn) [AA_247_B]	> 1	1 to 10	0.001 to 0.1
COC(=O)N[C@H](C(=O)N1CCC[C@H]1c1ncc(-c2ccc(-c3ccc(-c4cnc([C@H]5C6CCC(C6)[C@@H]5C(=O)NCc5cccnc5F)[nH]4)cc3)cc2)[nH]1)C(C)C (stereo partly drawn) [AA_224_A]	> 1	1 to 10	0.001 to 0.1
COC(=O)N[C@H](C(=O)N1CCC[C@H]1c1ncc(-c2ccc(-c3ccc(-c4cnc([C@H]5C6CCC(C6)[C@@H]5C(=O)NCc5cccnc5C(F)(F)F)[nH]4)cc3)cc2)[nH]1)C(C)C (stereo partly drawn) [AA_216_A]	> 1	10 to 100	0.001 to 0.1
COC(=O)N[C@H](C(=O)N1CCC[C@H]1c1ncc(-c2ccc(-c3ccc(-c4cnc(C5C6CCC(C6)[C@@H]5C(=O)N(NC(=O)OC)C5CCOCC5)[nH]4)cc3)cc2)[nH]1)C(C)C (stereo partly drawn) [AA_158]	> 1	1 to 10	0.001 to 0.1
COC(=O)N[C@H](C(=O)N1CCC[C@H]1c1ncc(-c2ccc(-c3ccc(-c4cnc(C5C6CCC(C6)[C@H]5C(=O)NCc5cccnc5)[nH]4)cc3)cc2)[nH]1)C(C)C (stereo partly drawn) [AA_162_A]	> 1	1 to 10	0.001 to 0.1
COC(=O)NC(C(=O)N1CCC[C@@H]1c1[nH]c(-c2ccc(-c3ccc(-c4cnc([C@@H]5CCCN5C(=O)[C@@H](NC(=O)OC)[C@@H](C)OC)[nH]4)cc3)cc2)c2c1CCC2)[C@@H](C)OC (stereo partly drawn) [AG_068_B]	> 1	10 to 100	0.101 to 1

Source: patent US10160771B2, “Hepatitis C virus inhibitors and uses thereof in preparation of drugs” (priority 2014, dated 2018)
